From US11053212B2, “Benzimidazole derivatives as bromodomain inhibitors” (GLAXOSMITHKLINE INTELLECTUAL PROPERTY DEVELOPMENT LIMITED, priority 2015, dated 2021)
Structures can show the parent of a compound that is named as a salt.

The compounds below were run against T1, BRD4 BD2 (Homo sapiens, UniProt O60885, Y97A) (assay: TR-FRET binding assay, BRD4 BD2 (mutant protein)). Conditions: 10 nM mutated bromodomain protein, Alexa Fluor647 ligand at Kd, read-out: mean pIC50 in the BRD4 BD2 assay (converted).
T1 construct: BRD4 (1-477) (Y97A) and (Y390A); made in house; host or cells: E. coli (pET15b vector)
Experimental: Biological Data Time Resolved Fluorescence Resonance Energy Transfer (TR-FRET) Assay
Binding was assessed using a time resolved fluorescent resonance energy transfer binding assay. This utilises a 6 His purification tag at the N-terminal of the proteins as an epitope for an anti-6 His antibody labeled with Europium chelate (PerkinElmer AD0111) allowing binding of the Europium to the proteins which acts as the donor fluorophore.
In the absence of a competing compound, excitation of the Europium causes the donor to emit at λ618 nm which excites the Alexa labelled bromodomain binding compound leading to an increased energy transfer that is measurable at λ647 nM. In the presence of a sufficient concentration of a compound that can bind these proteins, the interaction is disrupted leading to a quantifiable drop in fluorescent resonance energy transfer.
The binding of compounds of the invention to Bromodomains BRD2, BRD3, BRD4 and BRDT was assessed using mutated proteins to detect differential binding to either Binding Domain 1 (BD1) or Binding Domain 2 (BD2) on the bromodomain. […] Therefore in the final assay conditions, binding of the fluoroligand to the mutated domain cannot be detected and subsequently the assay is suitable to determine the binding of compounds to the single non-mutated bromodomain.
Recombinant Human Bromodomains [(BRD2 (1-473) (Y113A) and (Y386A), BRD3 (1-435) (Y73A) and (Y348A) BRD4 (1-477) (Y97A) and (Y390A) and BRDT (1-397) (Y66A) and (Y309A)] were expressed in E coli cells (in pET15b vector for BRD2/3/4 and in pET28a vector for BRDT) with a 6-His tag at the N-terminal. The His-tagged Bromodomain pellet was resuspended in 50 mM HEPES (pH7.5), 300 mM NaCl, 10 mM imidazole & 1 μl/ml protease inhibitor cocktail and extracted from the E coli cells using sonication and purified using a nickel sepharose high performance column, the proteins were washed and then eluted with a linear gradient of 0-500 mM imidazole with buffer 50 mM HEPES (pH7.5), 150 mM NaCl, 500 mM imidazole, over 20 column volumes. Final purification was completed by Superdex 200 prep grade size exclusion column. Purified protein was stored at −80° C. in 20 mM HEPES pH 7.5 and 100 mM NaCl.
All assay components were dissolved in buffer composition of 50 mM HEPES pH7.4, 50 mM NaCl, 5% Glycerol, 1 mM DTT and 1 mM CHAPS. The final concentration of bromodomain proteins were 10 nM and the Alexa Fluor647 ligand was at Kd. These components were premixed and 5 μl of this reaction mixture was added to all wells containing 50 nl of various concentrations of test compound or DMSO vehicle (0.5% DMSO final) in Greiner 384 well black low volume microtitre plates and incubated in dark for 30 minutes at rt. […] of detection mixture containing 1.5 nM final concentration anti-6His Europium chelate was added to all wells and a further dark incubation of at least 30 minutes was performed. Plates were then read on the Envision plate reader, (⋅ex=317 nm, donor ⋅em=615 nm; acceptor ⋅em=665 nm; Dichroic LANCE dual). Time resolved fluorescent intensity measurements were made at both emission wavelengths and the ratio of acceptor/donor was calculated and used for data analysis. All data was normalized to the mean of 16 high (inhibitor control—Example 11 of WO 2011/054846A1) and 16 low (DMSO) control wells on each plate. A four parameter curve fit of the following form was then applied: y=a+((b−a)/(1+(10^x/10^c)^d) Where ‘a’ is the minimum, […], ‘c’ is the pIC50 and […].

Structure (SMILES)	IC50 [µM]
Cc1cc(-c2nc3cc(CN[C@@H](CC(C)C)C(=O)O)ccc3n2CCCO)c[nH]c1=O [Example 21, (S)-2-(((1-(3-hydroxypropyl)-2-(5-methyl-6-oxo-1,6-dihydropyridin-3-yl)-1H-benzo[d]imidazol-5-yl)methyl)amino)-4-methylpentanoic acid, hydrochloride]	> 50.1
Cc1cc(-c2nc3cc(CN[C@@H](CC(C)C)C(=O)O)ccc3n2C)c[nH]c1=O [Example 24, (S)-4-methyl-2-(((1-methyl-2-(5-methyl-6-oxo-1,6-dihydropyridin-3-yl)-1H-benzo[d]imidazol-5-yl)methyl)amino)pentanoic acid, hydrochloride]	> 50.1
Cc1cc(-c2nc3cc(CN[C@@H](CC(C)C)C(=O)O)ccc3n2CC2CCN(C)CC2)c[nH]c1=O [Example 48, (S)-4-methyl-2-(((2-(5-methyl-6-oxo-1,6-dihydropyridin-3-yl)-1-((1-methylpiperidin-4-yl)methyl)-1H-benzo[d]imidazol-5-yl)methyl)amino)pentanoic acid, bis hydrochloride]	> 50.1
Cc1cc(-c2nc3cc(CN[C@@H](CC(C)C)C(=O)O)ccc3n2C2CCN(C)CC2)c[nH]c1=O [Example 60, (S)-4-methyl-2-(((2-(5-methyl-6-oxo-1,6-dihydropyridin-3-yl)-1-(1-methylpiperidin-4-yl)-1H-benzo[d]imidazol-5-yl)methyl)amino)pentanoic acid, bis-hydrochloride]	> 50.1

What follows are compounds tested against T2, recombinant human CES1 (Homo sapiens, UniProt P23141) (assay: Hydrolysis by hCES-1 (HPLC assay)). Conditions: 50 μM test compound, 50 nM CES1, 20° C., pH 7.5.
T2 construct: Recombinant human CES1 (Gly18-Glu563, bearing a polyhistidine tag at the C-terminus); polyhistidine (C); purchased Novoprotein, Summit, N.J., USA C450; host or cells: human cells
T2 sequence (P23141 18-563): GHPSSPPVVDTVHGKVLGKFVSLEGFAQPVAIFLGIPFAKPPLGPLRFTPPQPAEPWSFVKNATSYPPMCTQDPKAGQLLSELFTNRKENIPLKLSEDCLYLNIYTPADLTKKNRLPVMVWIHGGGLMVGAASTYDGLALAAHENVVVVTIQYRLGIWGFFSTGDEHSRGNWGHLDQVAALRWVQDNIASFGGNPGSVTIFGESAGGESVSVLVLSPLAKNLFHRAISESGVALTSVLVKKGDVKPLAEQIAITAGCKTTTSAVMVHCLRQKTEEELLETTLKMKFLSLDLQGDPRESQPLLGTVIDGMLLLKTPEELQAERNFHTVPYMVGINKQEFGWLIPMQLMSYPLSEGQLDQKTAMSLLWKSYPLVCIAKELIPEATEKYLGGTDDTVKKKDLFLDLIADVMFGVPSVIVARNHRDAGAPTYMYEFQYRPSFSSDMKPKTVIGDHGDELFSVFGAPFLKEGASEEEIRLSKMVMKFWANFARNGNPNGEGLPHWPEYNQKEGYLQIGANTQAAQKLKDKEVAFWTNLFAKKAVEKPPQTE
Format: in vitro ADME
Experimental: Hydrolysis of ESM-containing BET inhibitors by carboxylesterase 1 (CES1) is one aspect of delivering a targeted molecule. Rates of hydrolysis of certain compounds of the invention by recombinant human CES1 were determined using an HPLC assay. Recombinant human CES1 (Gly18-Glu563, bearing a polyhistidine tag at the C-terminus) expressed in human cells and purified to homogeneity was obtained from Novoprotein, Summit, N.J., USA (catalogue number C450). Reactions were run in 384 well plates at 20° C. in a buffer of 50 mM sodium phosphate pH 7.5/100 mM NaCl.
Assays used a fixed concentration of test compound (50 μM) and CES1 (50 nM) and a time course of the reaction was obtained by stopping samples at increasing times by addition of formic acid to lower the pH. Stopped samples were subsequently analysed by HPLC to resolve product acid from unhydrolysed ester, using a 50×2 mm C18 5 μM reversed-phase column (Phenomenex Gemini) at a flow rate of 1 ml/min using a gradient of acetonitrile in water, containing 0.1% formic acid. Chromatography was monitored using absorbance at 300 nm wavelength. The % of product formed was determined using integrated peak areas and used to determine the initial rate of the reaction. The specific activity of the CES1 against each test compound under these conditions (in units of μM/min/μM) was obtained by dividing the initial rate of the reaction by the CES1 concentration.

Structure (SMILES)	rate of hydrolysis (specific activity of CES1 against test compound)
Cc1cc(-c2nc3cc(CN[C@H](C(=O)OCC(C)C)[C@@H](C)O)ccc3n2C[C@H]2CN(C)CCO2)cn(C)c1=O (single isomer, unassigned) [Example 162a]	no detectable level of hydrolysis
Cc1cc(-c2nc3cc(CN[C@H](C(=O)OC4CCCC4)C(C)C)ccc3n2CC2CCOCC2)c[nH]c1=O [Example 16, (S)-cyclopentyl 3-methyl-2-(((2-(5-methyl-6-oxo-1,6-dihydropyridin-3-yl)-1-((tetrahydro-2H-pyran-4-yl)methyl)-1-benzo[d]imidazol-5-yl)methyl)amino)butanoate]	no detectable level of hydrolysis
Cc1cc(-c2nc3cc(CN[C@H](C(=O)OC4CCCC4)[C@@H](C)O)ccc3n2CC2CCOCC2)c[nH]c1=O [Example 138, (2S,3R)-cyclopentyl 3-hydroxy-2-(((2-(5-methyl-6-oxo-1,6-dihydropyridin-3-yl)-1-((tetrahydro-2H-pyran-4-yl)methyl)-1H-benzo[d]imidazol-5-yl)methyl)amino)butanoate]	no detectable level of hydrolysis
Cc1cc(-c2nc3cc(CN[C@H](C(=O)OC4CCCC4)[C@@H](C)O)ccc3n2CC2CCOCC2)cn(C)c1=O [Example 156, (2S,3R)-cyclopentyl 2-(((2-(1,5-dimethyl-6-oxo-1,6-dihydropyridin-3-yl)-1-((tetrahydro-2H-pyran-4-yl)methyl)-1H-benzo[d]imidazol-5-yl)methyl)amino)-3-hydroxybutanoate]	no detectable level of hydrolysis
Cc1cc(-c2nc3cc(CN[C@H](C(=O)OC(C)(C)C)[C@@H](C)O)ccc3n2CC2CCOCC2)cn(C)c1=O [Example 212, (2S,3R)-tert-butyl 2-(((2-(1,5-dimethyl-6-oxo-1,6-dihydropyridin-3-yl)-1-((tetrahydro-2H-pyran-4-yl)methyl)-1H-benzo[d]imidazol-5-yl)methyl)amino)-3-hydroxybutanoate]	no detectable level of hydrolysis
Cc1cc(-c2nc3cc(CN[C@H](C(=O)O[C@H]4CCOC4)[C@@H](C)O)ccc3n2CC2CCOCC2)cn(C)c1=O [Example 214]	no detectable level of hydrolysis
COC[C@H](C)n1c(-c2cc(C)c(=O)n(C)c2)nc2cc(CN[C@H](C(=O)O[C@H]3CCOC3)[C@@H](C)O)ccc21 [Example 216]	no detectable level of hydrolysis
